Source: patent US9381171B2 (priority 2013, dated 2016)

Columns and labels:
[1] = system: MURF-1 mRNA; experiment: MuRF-1 mRNA level by real time PCR in C2C12 cells (FIG. 5A); assay type: cell-based, mouse; settings: C2C12, 20 μM dapsone and 1 μM dexamethasone, 24 hours; normalized to GAPDH mRNA
Method: (§1) Here, 1 μM of dexamethasone was added thereto and incubated for 24 hours. Then, the amounts of the expressed mRNA of the Atrogin-1 and MuRF-1 among the C2C12 cells were confirmed. Here, the complete RNA was separated by using a Trizol reagent (Invitrogen). The analysis of the mRNAs of Atrogin-1 and MuRF-1 was performed by using a real time […] instrument, BioRad), which is a device for measuring reverse transcription and SYBR Green. The resulting amounts then normalize to the amount of GAPDH mRNA. The amplification of Atrogin-1, MuRF-1, and GAPDH mRNAs was performed by using an oligonucleotide primer set of SEQ ID NOS: 1 and 2, an oligonucleotide primer set of SEQ ID NOS: 3 and 4, and an oligonucleotide primer set of SEQ ID NOS: 5 and 6.

[2] = system: Atrogin-1; experiment: Atrogin-1 protein level by western blot in C2C12 cells (FIG. 5B); assay type: cell-based, mouse; settings: C2C12, 0.1, 1 or 20 μM dapsone and 1 μM dexamethasone; concentration-dependent
Method: (§2) A C2C12 cell line (mouse gastrocnemius muscle, ATCC®CRL-1772™) was inoculated in a 10% FBS/DMEM culture medium in a 60 mm culture dish. When the cells were grown to about 70% confluency in a 5% CO2 incubator at a temperature of 37° C., the culture medium was changed to a 2% FBS/DMEM culture medium to allow complete differentiation after incubation for 4 days. The C2C12 cell line is a mouse myoblast cell line obtained through continuous culture of myoblasts that are cultured from the gastrocnemius muscle of C3H mice. […] Here, 1 μM of dexamethasone was added thereto and cultured together for 24 hours as described above.
(§3) After the medium was removed from the culture and the cells were collected therefrom, 500 μl of an RIPA lysis buffer was added for lysing the cells. Then, the resulting lysates were subjected to electrophoresis and western blot analysis with respect to Atrogin-1, MuRF-1, and α-tubulin. A primary antibody used in the western blot analysis was a rabbit anti-Atrogin-1 antibody (ECM Bioscience), a MuRF-1 antibody (GeneTax), and α-tubulin (Cell Signaling Technology, USA) antibody, and a secondary antibody used in the western blot analysis was an HRP-conjugated anti-rabbit antibody (Jackson ImmunoResearch).

[3] = system: SOL muscle of the hind-limb of a mouse; settings: mouse fed 4 mg/kg dexamethasone and 2 mg/kg dapsone for 3 weeks, 0.2 Hz (100 V)
Method: (§4) The SOL muscle was separated from a female mouse (which weighs about 20 g) aged about 3 months. The mouse was anesthetized by sodium pentobarbital injection (100 mg/kg body weight). The SOL muscle, which is a type I muscle, was separated by paying attention to each hind-limb of the mouse while maintaining ligaments from both hind-limbs without damaging the SOL muscle. Then, the separated SOL muscle was put in an oxygen-treated Ringer's solution (118 mM NaCl, 4.75 mM KCl, 2.5 mM CaCl2, 1.18 mM MgSO4, 1.18 mM NaH2PO4, 24.8 mM NaHCO3, 10 mM glucose, and 0.02 g/l tubocurarine chloride, 25° C., pH 7.4) (Sigma Aldrich), set, and stabilized. One side of the separated SOL muscle was filled with the Ringer's solution to fix the separated SOL muscle on a tissue bath with smooth oxygen supply while the other side of the separated SOL muscle was fixed on a FT03 isometric force transducer (Grass Instruments, West Warwick, USA). Here, the muscle twitching was adjusted according to the intensity of the electric field stimulation. […] Here, the muscle contractility value (mN) represents the muscle twitch contraction.

[4] = system: SOL muscle of the hind-limb of a mouse; experiment: Muscle fatigability of SOL muscle separated from fed mice (FIG. 7); assay type: in vivo; settings: 150 Hz, 100 V, stimulation every 2 seconds for 30 seconds
Method: as §4

[5] = system: phosphorylated FOXO1-p (Ser256); experiment: Factors of atrophy: western blot of FOXO1-p in C2C12 cells (FIG. 4); assay type: cell-based, mouse; settings: C2C12, 0.1, 1, 20 μM dapsone 12 hours, then 1 μM dexamethasone 2 hours
Method: as §2, with “2” for “24”
(§5) After the medium was removed from the culture and the cells were collected therefrom, 500 μl of an RIPA lysis buffer (including 20 mM Tris-HCl (pH 7.5), 150 mM NaCl, 1 mM Na2EDTA, 1 mM EGTA, 1% NP-40, 1% sodium deoxycholate, 2.5 mM sodium pyrophosphate, 1 mM beta-glycerophosphate, 1 mM Na3VO4, and 1 μg/ml leupeptin) was added for lysing the cells. […]

[6] = system: Atrogin-1 mRNA; experiment: Atrogin-1 mRNA level by real time PCR in C2C12 cells (FIG. 5A); assay type: cell-based, mouse; settings: C2C12, 20 μM dapsone and 1 μM dexamethasone, 24 hours; normalized to GAPDH mRNA
Method: as §1

[7] = system: phosphorylated Akt-p (Ser473); experiment: Factors of atrophy: western blot of Akt-p in C2C12 cells (FIG. 4); assay type: cell-based, mouse; settings: C2C12, 0.1, 1, 20 μM dapsone 12 hours, then 1 μM dexamethasone 2 hours; concentration-dependent
Method: as §2, with “2” for “24”
as §5

[8] = system: MURF-1; experiment: MuRF-1 protein level by western blot in C2C12 cells (FIG. 5B); assay type: cell-based, mouse; settings: C2C12, 0.1, 1 or 20 μM dapsone and 1 μM dexamethasone; concentration-dependent
Method: as §2, §3

Row | degree of the muscle fatigability ([4]; upon intake of dexamethasone) | Structure (SMILES) | mRNA level of MURF-1 [1] | protein level of Atrogin-1 [2] | increase of twitch contractility compared with mouse fed on dexamethasone [3] | decrease of muscle fatigability compared with intake of only dexamethasone ([4]; intake of both dexamethasone and dapsone) | amount of the FOXO1-p protein [5] | mRNA level of Atrogin-1 [6] | amount of the Akt-p [7] | protein level of MURF-1 [8]
1 | – | Nc1ccc(S(=O)(=O)c2ccc(N)cc2)cc1 [dapsone, 4-[(4-aminobenzene)sulfonyl]aniline] | significantly decreased | significantly decreased | 43.7% | 20.3% | decreased | significantly decreased | increased | significantly decreased
2 | increased | C[C@@H]1C[C@H]2[C@@H]3CCC4=CC(=O)C=C[C@]4(C)[C@@]3(F)[C@@H](O)C[C@]2(C)[C@@]1(O)C(=O)CO [dexamethasone] | – | – | – | – | – | – | – | –
